Laboratory results as given in patent publication US6277847A, “Herbicidal isoindolinonyl-and 3,4-dihydroisoquinolonyl-substituted heterocycles” (FMC Corporation, priority 2000, dated 2001).

Assays:
Format in all cases: in vivo
[1] = test system: soybean (Glycine max -- var. Winchester); experiment: post-emergence herbicidal activity, soybean; conditions: 1 Kg/Ha, about fourteen days, read-out: post-emergence herbicidal activity (% control) SOY
Outline: (§1)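 Seedlings were grown in soil flats to a suitable stage, then sprayed with test compound in water/acetone at 1 Kg/Ha. Treated plants were kept alongside untreated controls for about fourteen days and then scored for phytotoxicity as percent control, 0 being no effect and 100 complete control.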

[2] = test system: blackgrass (Aloepecurus myosuroides); experiment: pre-emergence herbicidal activity, blackgrass; conditions: Alopecurus myosuroides, 1 kg/Ha, about fourteen days, read-out: pre-emergence herbicidal activity (% control) ALOMY
Outline: (§2)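 Seeds sown in flats of soil mix were sprayed pre-emergence with test compound in water/acetone at 1 kg/Ha. Flats were held about fourteen days beside untreated controls, then phytotoxicity was scored as percent control (0 = no effect, 100 = complete control).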

[3] = test system: common cocklebur (Xanthium strumarium L.); experiment: post-emergence herbicidal activity, cocklebur; conditions: 1 Kg/Ha, about fourteen days, read-out: post-emergence herbicidal activity (% control) XANPE
Outline: as §1

[4] = test system: blackgrass (Aloepecurus myosuroides); experiment: post-emergence herbicidal activity, blackgrass; conditions: Alopecurus myosuroides, 1 Kg/Ha, about fourteen days, read-out: post-emergence herbicidal activity (% control) ALOMY
Procedure: This example sets forth the methods of herbicidal testing conducted on the specific compounds set forth below. Specifically, the compounds referenced below were tested for pre- and post-emergence herbicidal activity using a variety of crops and weeds. The test plants include, but are not limited to, soybean (Glycine max -- var. Winchester), field corn (Zea mays var. Pioneer 3732), wheat (Triticum aestivum var. Lew), morningglory (Ipomea lacunosa or Ipomea hederacea), velvetleaf (Abutilon theophrasti), green foxtail (Setaria viridis), Johnsongrass (Sorghum halepense), blackgrass (Aloepecurus myosuroides), common chickweed (Stellaria media), and common cocklebur (Xanthium strumarium L.).
In the post-emergence test, seeds of the plant species named above were planted in flats containing the appropriate soil mixture where they were maintained to allow the seeds to germinate. When the plants in these flats reached the proper stage of growth, flats for the pre-emergence tests were planted in a like manner. The flats containing the post-emergence and pre-emergence test plant species were then sprayed with an appropriately concentrated water/acetone solution of test compound. Once treated the flats were maintained, along with untreated controls, for about fourteen days. All treated plants were then examined for phytotoxicity, which was expressed as percent control where 0 is no effect and 100 is complete control. Effective rates of application for the compounds of the present invention range from 0.001 to 3 kg/ha, more likely from […] to 1 Kg/ha.
Herbicidal activity data at selected application rates are in Tables 4 and 5. The test compounds are identified by numbers correspond to those in Table 1.
SOY is soybean, WHT is wheat, CRN is corn, ABUTH is velvetleaf, IPOSS is
morningglory, STEME is chickweed, XANPE is cocklebur, ALOMY is blackgrass,
Rate of application of test compound is 1 Kg/Ha. The definitions as shown under Table 4 apply to Table 5.

[5] = test system: velvetleaf (Abutilon theophrasti); experiment: post-emergence herbicidal activity, velvetleaf; conditions: 1 Kg/Ha, about fourteen days, read-out: post-emergence herbicidal activity (% control) ABUTH
Outline: as §1

[6] = test system: soybean (Glycine max -- var. Winchester); experiment: pre-emergence herbicidal activity, soybean; conditions: 1 kg/Ha, about fourteen days, read-out: pre-emergence herbicidal activity (% control) SOY
Outline: as §2

[7] = test system: common chickweed (Stellaria media); experiment: pre-emergence herbicidal activity, chickweed; conditions: 1 kg/Ha, about fourteen days, read-out: pre-emergence herbicidal activity (% control) STEME
Outline: as §2

[8] = test system: field corn (Zea mays var. Pioneer 3732); experiment: pre-emergence herbicidal activity, corn; conditions: 1 kg/Ha, about fourteen days, read-out: pre-emergence herbicidal activity (% control) CRN
Outline: as §2

[9] = test system: velvetleaf (Abutilon theophrasti); experiment: pre-emergence herbicidal activity, velvetleaf; conditions: 1 kg/Ha, about fourteen days, read-out: pre-emergence herbicidal activity (% control) ABUTH
Outline: as §2

[10] = test system: Johnsongrass (Sorghum halepense); experiment: pre-emergence herbicidal activity, johnsongrass; conditions: 1 kg/Ha, about fourteen days, read-out: pre-emergence herbicidal activity (% control) SORHA
Outline: as §2

[11] = test system: wheat (Triticum aestivum var. Lew); experiment: post-emergence herbicidal activity, wheat; conditions: 1 Kg/Ha, about fourteen days, read-out: post-emergence herbicidal activity (% control) WHT
Outline: as §1

[12] = test system: green foxtail (Setaria viridis); experiment: pre-emergence herbicidal activity, green foxtail; conditions: 1 kg/Ha, about fourteen days, read-out: pre-emergence herbicidal activity (% control) SETVI
Outline: as §2

[13] = test system: common chickweed (Stellaria media); experiment: post-emergence herbicidal activity, chickweed; conditions: 1 Kg/Ha, about fourteen days, read-out: post-emergence herbicidal activity (% control) STEME
Outline: as §1

[14] = test system: wheat (Triticum aestivum var. Lew); experiment: pre-emergence herbicidal activity, wheat; conditions: 1 kg/Ha, about fourteen days, read-out: pre-emergence herbicidal activity (% control) WHT
Outline: as §2

[15] = test system: green foxtail (Setaria viridis); experiment: post-emergence herbicidal activity, green foxtail; conditions: 1 Kg/Ha, about fourteen days, read-out: post-emergence herbicidal activity (% control) SETVI
Outline: as §1

[16] = test system: common cocklebur (Xanthium strumarium L.); experiment: pre-emergence herbicidal activity, cocklebur; conditions: 1 kg/Ha, about fourteen days, read-out: pre-emergence herbicidal activity (% control) XANPE
Outline: as §2

[17] = test system: morningglory (Ipomea lacunosa or Ipomea hederacea); experiment: pre-emergence herbicidal activity, morningglory; conditions: Ipomoea, 1 kg/Ha, about fourteen days, read-out: pre-emergence herbicidal activity (% control) IPOSS
Outline: as §2

[18] = test system: Johnsongrass (Sorghum halepense); experiment: post-emergence herbicidal activity, johnsongrass; conditions: 1 Kg/Ha, about fourteen days, read-out: post-emergence herbicidal activity (% control) SORHA
Outline: as §1

[19] = test system: field corn (Zea mays var. Pioneer 3732); experiment: post-emergence herbicidal activity, corn; conditions: 1 Kg/Ha, about fourteen days, read-out: post-emergence herbicidal activity (% control) CRN
Outline: as §1

[20] = test system: morningglory (Ipomea lacunosa or Ipomea hederacea); experiment: post-emergence herbicidal activity, morningglory; conditions: Ipomoea, 1 Kg/Ha, about fourteen days, read-out: post-emergence herbicidal activity (% control) IPOSS
Outline: as §1

CC(C)N1Cc2c(ccc(Cl)c2-n2c(=O)cc(C(F)(F)F)n(C)c2=O)C1=O [Compound 1]
activity at 1000 g/ha [1]: 95%
activity at 1000 g/ha [2]: 80%
activity at 1000 g/ha [3]: 60%
activity at 1000 g/ha [4]: 75%
activity at 1000 g/ha [5]: 100%
activity at 1000 g/ha [6]: 90%
activity at 1000 g/ha [7]: 90%
activity at 1000 g/ha [8]: 95%
activity at 1000 g/ha [9]: 100%
activity at 1000 g/ha [10]: 90%
activity at 1000 g/ha [11]: 70%
activity at 1000 g/ha [12]: 100%
activity at 1000 g/ha [13]: 50%
activity at 1000 g/ha [14]: 80%
activity at 1000 g/ha [15]: 80%
activity at 1000 g/ha [16]: 70%
activity at 1000 g/ha [17]: 100%
activity at 1000 g/ha [18]: 100%
activity at 1000 g/ha [19]: 90%
activity at 1000 g/ha [20]: 70%

CC(C)N1Cc2c(-n3c(=O)cc(C(F)(F)F)n(C)c3=O)ccc(Cl)c2C1=O [Compound 3, 3-[7-chloro-2-(1-methylethyl)isoindolin-1-on-4-yl]-1-methyl-6-trifluoromethyl-2,4(1H,3H)-pyrimidinedione]
activity at 1000 g/ha [1]: 95%
activity at 1000 g/ha [2]: 100%
activity at 1000 g/ha [3]: 100%
activity at 1000 g/ha [4]: 100%
activity at 1000 g/ha [5]: 100%
activity at 1000 g/ha [6]: 100%
activity at 1000 g/ha [7]: 100%
activity at 1000 g/ha [8]: 100%
activity at 1000 g/ha [9]: 100%
activity at 1000 g/ha [10]: 100%
activity at 1000 g/ha [11]: 100%
activity at 1000 g/ha [12]: 100%
activity at 1000 g/ha [13]: 100%
activity at 1000 g/ha [14]: 100%
activity at 1000 g/ha [15]: 100%
activity at 1000 g/ha [16]: 100%
activity at 1000 g/ha [17]: 100%
activity at 1000 g/ha [18]: 100%
activity at 1000 g/ha [19]: 100%
activity at 1000 g/ha [20]: 100%

CC(C)N1Cc2c(c(Cl)cc(Cl)c2-n2c(=O)cc(C(F)(F)F)n(C)c2=O)C1=O [Compound 4]
activity at 1000 g/ha [1]: 100%
activity at 1000 g/ha [2]: 100%
activity at 1000 g/ha [3]: 100%
activity at 1000 g/ha [4]: 100%
activity at 1000 g/ha [5]: 100%
activity at 1000 g/ha [6]: 100%
activity at 1000 g/ha [7]: 100%
activity at 1000 g/ha [8]: 100%
activity at 1000 g/ha [9]: 100%
activity at 1000 g/ha [10]: 100%
activity at 1000 g/ha [11]: 100%
activity at 1000 g/ha [12]: 100%
activity at 1000 g/ha [13]: 100%
activity at 1000 g/ha [14]: 100%
activity at 1000 g/ha [15]: 100%
activity at 1000 g/ha [16]: 100%
activity at 1000 g/ha [17]: 100%
activity at 1000 g/ha [18]: 100%
activity at 1000 g/ha [19]: 100%
activity at 1000 g/ha [20]: 100%

CCN1Cc2c(c(Cl)cc(Cl)c2-n2c(=O)cc(C(F)(F)F)n(C)c2=O)C1=O [Compound 5]
activity at 1000 g/ha [1]: 95%
activity at 1000 g/ha [2]: 100%
activity at 1000 g/ha [3]: 100%
activity at 1000 g/ha [4]: 100%
activity at 1000 g/ha [5]: 100%
activity at 1000 g/ha [6]: 100%
activity at 1000 g/ha [7]: 100%
activity at 1000 g/ha [8]: 100%
activity at 1000 g/ha [9]: 100%
activity at 1000 g/ha [10]: 100%
activity at 1000 g/ha [11]: 100%
activity at 1000 g/ha [12]: 100%
activity at 1000 g/ha [13]: 100%
activity at 1000 g/ha [14]: 100%
activity at 1000 g/ha [15]: 100%
activity at 1000 g/ha [16]: 100%
activity at 1000 g/ha [17]: 100%
activity at 1000 g/ha [18]: 100%
activity at 1000 g/ha [19]: 100%
activity at 1000 g/ha [20]: 100%

Cn1c(C(F)(F)F)cc(=O)n(-c2c(Cl)cc(Cl)c3c2CN(C(C)(C)C)C3=O)c1=O [Compound 6]
activity at 1000 g/ha [1]: 90%
activity at 1000 g/ha [2]: 100%
activity at 1000 g/ha [3]: 100%
activity at 1000 g/ha [4]: 100%
activity at 1000 g/ha [5]: 100%
activity at 1000 g/ha [6]: 100%
activity at 1000 g/ha [7]: 100%
activity at 1000 g/ha [8]: 100%
activity at 1000 g/ha [9]: 100%
activity at 1000 g/ha [10]: 100%
activity at 1000 g/ha [11]: 80%
activity at 1000 g/ha [12]: 100%
activity at 1000 g/ha [13]: 100%
activity at 1000 g/ha [14]: 100%
activity at 1000 g/ha [15]: 100%
activity at 1000 g/ha [16]: 100%
activity at 1000 g/ha [17]: 100%
activity at 1000 g/ha [18]: 100%
activity at 1000 g/ha [19]: 100%
activity at 1000 g/ha [20]: 95%

Cn1c(C(F)(F)F)cc(=O)n(-c2ccc(Cl)c3c2CN(Cc2ccc(Cl)cc2)C3=O)c1=O [Compound 24]
activity at 1000 g/ha [1]: 60%
activity at 1000 g/ha [3]: 80%
activity at 1000 g/ha [4]: 70%
activity at 1000 g/ha [5]: 100%
activity at 1000 g/ha [6]: 10%
activity at 1000 g/ha [7]: 70%
activity at 1000 g/ha [8]: 50%
activity at 1000 g/ha [9]: 100%
activity at 1000 g/ha [11]: 30%
activity at 1000 g/ha [12]: 95%
activity at 1000 g/ha [13]: 100%
activity at 1000 g/ha [14]: 30%
activity at 1000 g/ha [15]: 70%
activity at 1000 g/ha [16]: 10%
activity at 1000 g/ha [17]: 30%
activity at 1000 g/ha [18]: 40%
activity at 1000 g/ha [19]: 70%
activity at 1000 g/ha [20]: 30%
